Holding throughout (assay type): cell-based
In one test the test system is U2OS cells. The experiment in a line: western blotting of caspase-3 activation and γ-H2AX after doxorubicin. The method, then: FIGS. 9A-9B. […] (FIG. 9A) U2OS cells were treated with increasing concentrations of P7C3-A20 for 2 h prior to exposure to 0.5 μM doxorubicin for another 2 h. Cells were harvested and subjected to western blotting with the DNA damage marker, γ-H2AX. Actin was served as loading control. (FIG. 9B) U2OS cells were treated with P7C3-A20 and doxorubicin for the indicated time. Caspase-3 activation was determined by western blotting. Caspase-3 cleavage was observed when treated with doxorubicin alone at 60 h, but was prevented in the presence of P7C3-A20.
Progress on studies aimed towards resolving the mode of action of P7C3 has been hampered by the fact that we have been limited to studies of drug action in living animals. Our standard assay of neurogenesis requires, under optimal conditions, a one month turn-around from the synthesis of a new derivative to a score for its neuroprotective activity. In efforts to break this logjam, we tested whether P7C3 might have cell-protective activity to any of eight generic toxins.

For a further test, the system named is NAD in U2OS cells. Kind of test: intracellular NAD abundance by LC-MS/MS. The settings on record: U2OS cells exposed to sub-lethal doxorubicin. How it is done:
FIGS. 5A-5C. Active variants of P7C3 compensate NAD exhaustion induced by doxorubicin. (FIG. 5A) U2OS cells were treated with the indicated concentration of P7C3-A20. Cells were harvested and NAD metabolites were measured by LC-MS/MS. Abundance of NAD was normalized relative to total metabolites (Experimental Procedures). The data are represented as the mean±SD of experimental duplicates. […] Cells were grown in 96-well plates and treated with the indicated concentrations of P7C3-A20, P7C3-S243, P7C3-S6 or P7C3-S117 together with 0.5 μM doxorubicin for 45 h. Cellular NAD abundance was determined by NAD/NADH Glo assay kit. […] The activities in both assays are represented by (Sinf−S0)/AC50 in dose response curves of test compounds.
Doxorubicin is a DNA-damaging toxin known to activate the poly ADP-ribose polymerase (PARP) enzyme as a central feature of DNA repair (Pacher et al., 2002) (Munoz-Gamez et al., 2009). […] U2OS cells exposed to sub-lethal levels of doxorubicin were lysed in methanol, cleared by centrifugation and subjected to metabolite analysis by mass spectrometry. These methods allow for the simultaneous, quantitative analysis of hundreds of intracellular metabolites (Tu et al., 2007) (Wang et al., 2009). […] The mass spectrometry methods used to quantitate metabolite levels measured NAD relative to hundreds of other intracellular metabolites. […]

The test system of test [1] is nicotinamide salvage pathway in U2OS cells. Kind of test: nicotinamide flux analysis with 14C-labeled nicotinamide (TLC). The settings on record: 0.5 μM doxorubicin 48 h, then 6 h 14C-nicotinamide. The method, then:
FIGS. 6A-6B. P7C3-A20 enhances the flux of nicotinamide through the salvage pathway. (FIG. 6A) Cells were pre-treated with 0.5 μM doxorubicin for 48 hours, followed by 6 hours treatment with ^14C-nicotinamide in the presence of the indicated amount of P7C3-A20. Metabolites were extracted and analyzed by thin layer chromatography. (FIG. 6B) Quantification of the relative intensities of NAD and NMN from the thin layer chromatogram.
NAMPT is the rate limiting enzyme in the salvage pathway whereby cells sequentially convert nicotinamide into nicotinamide […] mononucleotide (NMN) and NAD (Preiss and Handler, 1958). If active variants of P7C3 indeed bind to the NAMPT dimer in a manner fostering its activity, then these compounds should enhance the flux of nicotinamide through the salvage pathway. To test this hypothesis, ^14C-labeled nicotinamide was administered to cultured U2OS cells. Six hours later, cells were lysed in perchloric acid and cleared by centrifugation so that soluble materials could be separated by thin layer chromatography (TLC) followed by autoradiography.
Logarithmically growing cells cultured in 6-well plates were treated with doxorubicin (0.5 μM) for 48 hours. […] Afterwards, the screen was scanned using the Typhoon scanner, and the ^14C-labeled compounds were quantified using Image J.

Test [2] has as its system NAD levels in doxorubicin-treated U2OS cells. Kind of test: NAD rebound assay in doxorubicin-treated cells (NAD/NADH Glo). The note with it: 0.5 μM doxorubicin 45 h. How it is done: FIG. 12. Five-point dose response curves (DRC) of all tested compounds in NAD rebound assay. […] Cellular NAD abundance was determined by NAD/NADH Glo assay kit.
Each chemical variant of P7C3 was co-incubated with doxorubicin on cultured U2OS cells at five doses (0.03 uM, 0.1 uM, 0.3 uM, 1 uM and 3 uM). After 45 hrs incubation, cells were assayed for intracellular levels of NAD (FIG. 12).
Assay was performed following the manufacturer's protocol. NAD/NADH-Glo reagent contains the NAD Cycling Enzyme that converts NAD+ to NADH. In the presence of NADH, the enzyme reductase reduces a proluciferin reductase substrate to form luciferin. Cells were grown in 96- or 384-well plates. 50 μl or 15 μl of NAD/NADH-Glo™ Detection Reagent were added to each well. The resulting luminescence signals were measured by Tecan plate reader or EnVison multimode plate reader (Perkin Elmer).

For `COc1cccc(NCC(F)Cn2c3ccc(Br)cc3c3cc(Br)ccc32)c1` (centres unmarked) [S10], the “DNA damage response (phosphorylation of H2AX)” value with U2OS cells (0.5 μM doxorubicin) is “not DNA damage response”. The “doxorubicin-induced apoptosis (caspase-3 activation)” value in the test with U2OS cells (co-administration with doxorubicin) was “blocked doxorubicin-induced apoptosis”. Also, the “NAD level relative to total metabolites” value in the test on NAD in U2OS cells is recorded as “dose-dependent replenishment of NAD”. For the same compound, in test [1], the “conversion of radiolabeled nicotinamide into NMN and NAD” value is “enhanced conversion of radiolabeled nicotinamide into NMN and NAD”. Besides, the “rebound of NAD levels (NAD/NADH-Glo kit)” value in test [2] was “rebound of NAD levels”.

These data come from patent US9243281B2, “Neuroprotective chemicals and methods for identifying and using same” (Board of Regents of The University of Texas System, priority 2013, dated 2016).
